Among the data in patent publication US12599672B2, “KRAS proteolysis targeting chimeras” (PAQ Therapeutics Inc., priority 2023, dated 2026) are DC50 and Dmax values, retold here.

What all share (type): cell-based
One experiment addresses T1, KRAS G12D (Homo sapiens, UniProt P01116, G12D).
T1 construct: AsPc-1-KRAS (G12D)-HiBit-KI cell (Pharmaron); host or cells: AsPc-1-KRAS (G12D)-HiBit-KI cells (HiBiT knock-in at the endogenous KRAS locus)
Kind of experiment: KRAS G12D HiBit assay. As to conditions: AsPc-1-KRAS (G12D)-HiBit-KI cell, compound treatment for 24 hours, class symbols; for DC50: absolute DC50. The method in brief: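 Cells were treated for 24 h with compounds in a 3-fold, 10-point dilution series from a 0.3 mM DMSO stock, then equilibrated 15 min at room temperature. KRAS G12D HiBiT levels were read by luminescence after lytic Nano-Glo HiBiT reagent with LgBiT; inhibition calculated relative to 0.1% DMSO high control.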

Another experiment deals with T2, KRAS G12V (Homo sapiens, UniProt P01116, G12V).
T2 construct: SW620-KRAS (G12V)-HiBit-KI cell (Pharmaron); host or cells: SW620-KRAS (G12V)-HiBit-KI cells (HiBiT knock-in at the endogenous KRAS locus)
T2 sequence (P01116 1-188 isoform P01116-2 G12V): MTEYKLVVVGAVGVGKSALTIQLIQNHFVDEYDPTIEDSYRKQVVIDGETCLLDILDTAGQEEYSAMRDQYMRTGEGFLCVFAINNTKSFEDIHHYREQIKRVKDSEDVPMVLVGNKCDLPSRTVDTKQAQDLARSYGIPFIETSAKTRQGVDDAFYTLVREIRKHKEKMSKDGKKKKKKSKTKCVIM
Kind of experiment: KRAS G12V HiBit assay. As to conditions: SW620-KRAS (G12V)-HiBit-KI cells, compound treatment for 24 hours, class symbols. The essentials: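 HiBiT-tagged KRAS G12V cells treated 24 h with compound in a 3-fold, 10-point series (0.3 mM DMSO stock); lytic HiBiT reagent with LgBiT added after 15 min room-temperature equilibration. Degradation calculated against 0.1% DMSO high control.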

In another experiment the target is T3, KRAS (Homo sapiens, UniProt P01116).
T3 construct: endogenous in cells; host or cells: KE39 (KRAS amplified) cells
T3 sequence (P01116 1-188 isoform P01116-2): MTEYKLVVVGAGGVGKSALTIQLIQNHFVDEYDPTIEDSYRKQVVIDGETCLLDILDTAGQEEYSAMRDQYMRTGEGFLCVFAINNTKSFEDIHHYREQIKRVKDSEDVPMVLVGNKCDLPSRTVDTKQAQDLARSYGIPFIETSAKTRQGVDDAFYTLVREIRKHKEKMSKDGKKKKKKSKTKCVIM
Kind of experiment: KRASamp MSD assay. The following applies: KE39 (KRAS amplified) cells, treated with test compounds for 24 hr, MSD readout of KRAS degradation. The essentials:
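KRAS-amplified KE39 cells treated with compound for 24 hr, then lysed in RIPA buffer with protease/phosphatase inhibitors. KRAS protein measured by MSD sandwich immunoassay against a recombinant WT KRAS standard curve; DC50 derived from curve fitting of degradation.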

T1 sequence (P01116 1-188 isoform P01116-2 G12D): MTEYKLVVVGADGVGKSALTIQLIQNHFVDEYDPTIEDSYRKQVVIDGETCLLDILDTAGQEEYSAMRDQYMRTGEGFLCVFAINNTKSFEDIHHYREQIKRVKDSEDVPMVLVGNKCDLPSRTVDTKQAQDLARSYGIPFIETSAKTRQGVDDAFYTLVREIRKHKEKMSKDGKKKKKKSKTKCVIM

For the compound `C#Cc1c(F)ccc2cc(O)cc(-c3ncc4c(N5CCC[C@@](C)(O)C5)nc(OC[C@@]56CCCN5[C@H](COC(=O)N5CCC7(CCC(CN8CCC(c9ccc%10c(c9)n(C)c(=O)n%10C9CCC(=O)NC9=O)CC8)CC7)C5)CC6)nc4c3F)c12` (stereo partly shown) [Compound 454], the DC50 at KRAS G12D is less than 100 nM; on KRAS G12V it was less than 10 nM; on KRAS, less than 1 nM.

For `CCc1c(F)ccc2cc(O)cc(-c3ncc4c(N5CCC[C@@](C)(O)C5)nc(OC[C@@]56CCCN5[C@H](COC(=O)N5CCC(CN7CCC(c8cc9c(cc8F)c(C8CCC(=O)NC8=O)nn9C)CC7)CC5)CC6)nc4c3F)c12` (stereo partly drawn) [Compound 102, ((3S,7aS)-7a-(((7-(8-ethyl-7-fluoro-3-hydroxynaphthalen-1-yl)-8-fluoro-4-((R)-3-hydroxy-3-methylpiperidin-1-yl)pyrido[4,3-d]pyrimidin-2-yl)oxy)methyl)hexahydro-1H-pyrrolizin-3-yl)methyl4-((4-(3-(2,6-dioxopiperidin-3-yl)-5-fluoro-1-methyl-1H-indazol-6-yl)piperidin-1-yl)methyl) piperidine-1-carboxylate], the DC50 was less than 100 nM at KRAS G12D, less than 10 nM at KRAS G12V and less than 1 nM on KRAS. For the same compound, the Dmax on KRAS G12D was greater than 50%.
